Biological target: PCSK9 (Homo sapiens, UniProt Q8NBP7)
Assay: PCSK9-LDLR in vitro Binding Assay (solid phase, ELISA readout)
Details: for inhibition at 10 µM: test compound concentration 10 μM; for inhibition at 100 µM: test compound concentration 100 μM
Method: The PCSK9-LDLR in vitro Binding Assay is a quantitative solid phase binding assay between PCSK9 and recombinant LDLR. Plates were pre-coated with a recombinant LDLR-AB domain, which binds PCSK9. Test compound at different concentration was added to the PCSK9 and added to LDLR immobilized on the wells. The amount of bound PCSK9 is measured by binding it with biotinylated anti-His-tag monoclonal antibody, followed by binding with horseradish peroxidase conjugated streptavidin substrate. The color was quantified by ELISA reader at […] which reflects the relative amount of PCSK9 that binds to LDLR in presence and absence of the inhibitor.

Sequence of PCSK9 (Q8NBP7 153-692): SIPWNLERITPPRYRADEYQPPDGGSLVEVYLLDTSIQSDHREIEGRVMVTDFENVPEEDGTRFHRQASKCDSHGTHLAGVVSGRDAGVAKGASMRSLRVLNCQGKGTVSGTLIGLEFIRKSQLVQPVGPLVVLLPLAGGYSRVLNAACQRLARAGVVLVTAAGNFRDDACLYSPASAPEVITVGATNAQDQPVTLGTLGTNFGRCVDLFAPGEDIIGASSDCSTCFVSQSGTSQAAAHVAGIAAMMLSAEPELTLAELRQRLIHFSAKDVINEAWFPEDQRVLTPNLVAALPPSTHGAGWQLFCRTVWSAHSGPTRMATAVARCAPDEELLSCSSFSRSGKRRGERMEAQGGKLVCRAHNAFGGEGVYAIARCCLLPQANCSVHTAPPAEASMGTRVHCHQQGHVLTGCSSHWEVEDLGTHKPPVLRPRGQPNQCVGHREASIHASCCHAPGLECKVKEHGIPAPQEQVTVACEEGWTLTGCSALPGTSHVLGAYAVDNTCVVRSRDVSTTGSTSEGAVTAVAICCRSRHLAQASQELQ
Sequence of PCSK9 (Q8NBP7 31-152 partner limits assumed): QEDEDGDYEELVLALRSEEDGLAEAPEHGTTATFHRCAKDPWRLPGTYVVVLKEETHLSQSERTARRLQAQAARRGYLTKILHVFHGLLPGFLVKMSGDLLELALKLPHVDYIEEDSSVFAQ

Row | SMILES | inhibition at 10 µM | inhibition at 100 µM
1 | O=C(COc1ccc2c(c1)CCCC2=NOCc1ccc(C(F)(F)F)cc1)NN1CCCCC1 [Example 58, N-(piperidin-1-yl)-2-((5-(((4-(trifluoromethyl)benzyl)oxy)imino)-5,6,7,8-tetrahydronaphthalen-2-yl)oxy)acetamide] | 50% | 53%
2 | CCC(=NOCc1ccc(C(F)(F)F)cc1)c1ccc(OCC(=O)N2CCOCC2)cc1 [Example 13, 1-Morpholino-2-(4-(1-(((4-(trifluoromethyl)benzyl)oxy)imino)propyl)phenoxy)ethanone] | 52% | 54%
3 | CC(C)(C)OC(=O)N1CCC(ONC(=O)COc2ccc(C(Cc3ccccc3)=NOCc3ccc(C(F)(F)F)cc3)cc2)CC1 [Example 8, tert-Butyl 4-((2-(4-(2-phenyl-1-(((4-(trifluoromethyl)benzyl)oxy)imino)ethyl)phenoxy)acetamido)oxy)piperidine-1-carboxylate] | 50% | 52%
4 | Cc1ccnc(NC(=O)COc2ccc3c(c2)CCCC3=NOCc2ccc(C(F)(F)F)cc2)n1 [Example 60, N-(4-methylpyrimidin-2-yl)-2-((5-(((4-(trifluoromethyl)benzyl)oxy)imino)-5,6,7,8-tetrahydronaphthalen-2-yl)oxy)acetamide] | 61% | 91%
5 | O=C(COc1ccc2c(c1)CCCC2=NOCc1ccc(C(F)(F)F)cc1)N1CCCCC1 [Example 54, 1-(piperidin-1-yl)-2-((5-(((4-(trifluoromethyl)benzyl)oxy)imino)-5,6,7,8-tetrahydronaphthalen-2-yl)oxy)ethanone] | 40% | 62%
6 | [C-]#[N+]c1ccccc1NC(=O)COc1ccc2c(c1)CCCC2=NOCc1ccc(C(F)(F)F)cc1 [Example 63, N-(2-isocyanophenyl)-2-((5-(((4-(trifluoromethyl)benzyl)oxy)imino)-5,6,7,8-tetrahydronaphthalen-2-yl)oxy)acetamide] | 48% | 58%
7 | CCC(=NOCCn1ccc2ccccc21)c1ccc(OCC(=O)N2CCN(C)CC2)cc1 [Example 46, 2-(4-(1-((2-(1H-indol-1-yl)ethoxy)imino)propyl)phenoxy)-1-(4-methylpiperazin-1-yl)ethanone] | 27% | 59%
8 | CCC(=NOCc1ccc(C(F)(F)F)cc1)c1ccc(OCC(=O)Nc2cc(C)nn2C)cc1 [Example 22, N-(1,3-Dimethyl-1H-pyrazol-5-yl)-2-(4-(1-(((4-(trifluoromethyl)benzyl)oxy)imino)propyl)phenoxy)acetamide] | 35% | 60%
9 | CCC(=NOCc1ccc(C(F)(F)F)cc1)c1ccc(OCC(=O)N2CCCCC2)cc1 [Example 15, 1-(Piperidin-1-yl)-2-(4-(1-(((4-(trifluoromethyl)benzyl)oxy)imino)propyl)phenoxy)ethanone] | 32% | 64%
10 | O=C(COc1ccc(C(Cc2ccccc2)=NOCc2ccc(OC(F)(F)F)cc2)cc1)N1CCOCC1 [Example 35, 1-morpholino-2-(4-(2-phenyl-1-(((4-(trifluoromethoxy)benzyl)oxy)imino)ethyl)phenoxy)ethanone] | 26% | 42%
11 | Cc1cc(C(Cc2ccccc2)=NOCc2ccc(OC(F)(F)F)cc2)ccc1OCC(=O)N1CCOCC1 [Example 34, 2-(2-methyl-4-(2-phenyl-1-(((4-(trifluoromethoxy)benzyl)oxy)imino)ethyl)phenoxy)-1-morpholinoethanone] | 25% | 46%
12 | CCC(=NOCc1nc(-c2ccccc2)oc1C)c1ccc(OCC(=O)N2CCN(C)CC2)cc1 [Example 50, 2-(4-(1-(((5-methyl-2-phenyloxazol-4-yl)methoxy)imino)propyl)phenoxy)-1-(4-methylpiperazin-1-yl)ethanone] | 22% | 42%
13 | CC(C)(C)OC(=O)N1CCC(ONC(=O)COc2ccc3c(c2)CCCC3=NOCc2ccc(C(F)(F)F)cc2)CC1 [Example 62, tert-butyl 4-((2-((5-(((4-(trifluoromethyl)benzyl)oxy)imino)-5,6,7,8-tetrahydronaphthalen-2-yl)oxy)acetamido)oxy)piperidine-1-carboxylate] | 57% | 73%
14 | CCC(=NOCc1ccc(C(F)(F)F)cc1)c1ccc(OCC(=O)N(CCO)c2ccccc2)cc1 [Example 20, N-(2-Hydroxyethyl)-N-phenyl-2-(4-(1-(((4-(trifluoromethyl)benzyl)oxy)imino)propyl)phenoxy)acetamide] | 20% | 54%
15 | O=C(COc1ccc(C(Cc2ccccc2)=NOCc2ccc(C(F)(F)F)cc2)cc1)N1CCOCC1 [Example 4, 1-Morpholino-2-(4-(2-phenyl-1-(((4-(trifluoromethyl)benzyl)oxy)imino)ethyl)phenoxy)ethanone] | 31% | 62%
16 | COc1ccc(CON=C(Cc2ccccc2)c2ccc(OCC(=O)N3CCCCC3)c(C)c2)cc1 [Example 40, 2-(4-(1-(((4-methoxybenzyl)oxy)imino)-2-phenylethyl)-2-methylphenoxy)-1-(piperidin-1-yl)ethanone] | 24% | 50%
17 | Cc1cc(C(Cc2ccccc2)=NOCc2ccc(C(F)(F)F)cc2)ccc1OCC(=O)N1CCOCC1 [Example 1, 2-(2-Methyl-4-(2-phenyl-1-(((4-(trifluoromethyl)benzyl)oxy)imino)ethyl)phenoxy)-1-morpholinoethanone] | 50% | 51%
18 | O=C(COc1ccc2c(c1)CCCC2=NOCc1ccc(C(F)(F)F)cc1)Nc1nc2cc(Cl)ccc2o1 [Example 59, N-(5-chlorobenzo[d]oxazol-2-yl)-2-((5-(((4-(trifluoromethyl)benzyl)oxy)imino)-5,6,7,8-tetrahydronaphthalen-2-yl)oxy)acetamide] | 49% | 79%
19 | CN1CCN(C(=O)COc2ccc3c(c2)CCCC3=NOCc2ccc(C(F)(F)F)cc2)CC1 [Example 56, 1-(4-methylpiperazin-1-yl)-2-((5-(((4-(trifluoromethyl)benzyl)oxy)imino)-5,6,7,8-tetrahydronaphthalen-2-yl)oxy)ethanone] | 63% | 66%
20 | Cc1cc(C(Cc2ccccc2)=NOCc2ccc(C(F)(F)F)cc2)ccc1OCC(=O)NCC(=O)N1CCOCC1 [Example 3, 2-(2-Methyl-4-(2-phenyl-1-(((4-(trifluoromethyl)benzyl)oxy)imino)ethyl)phenoxy)-N-(2-morpholino-2-oxoethyl)acetamide] | 32% | 38%
21 | O=C(COc1ccc(C(Cc2ccccc2)=NOCc2ccc(C(F)(F)F)cc2)cc1)NN1CCOCC1 [Example 9, N-Morpholino-2-(4-(2-phenyl-1-(((4-(trifluoromethyl)benzyl)oxy)imino)ethyl)phenoxy)acetamide] | 53% | 33%
22 | CC(=NOCc1ccc(C(F)(F)F)cc1)c1ccc(OCC(=O)N2CCOCC2)cc1 [Example 11, 1-Morpholino-2-(4-(1-(((4-(trifluoromethyl)benzyl)oxy)imino)ethyl)phenoxy)ethanone] | 26% | 57%
23 | O=C(COc1ccc(C(Cc2ccccc2)=NOCc2ccccc2)cc1)N1CCOCC1 [Example 25, 2-(4-(1-((Benzyloxy)imino)-2-phenylethyl)phenoxy)-1-morpholinoethanone] | 27% | 40%
24 | O=C(COc1ccc2c(c1)CCCC2=NOCc1ccc(C(F)(F)F)cc1)NN1CCOCC1 [Example 57, N-morpholino-2-((5-(((4-(trifluoromethyl)benzyl)oxy)imino)-5,6,7,8-tetrahydronaphthalen-2-yl)oxy)acetamide] | 50% | 59%
25 | Cc1cc(C(Cc2ccsc2)=NOCc2ccc(C(F)(F)F)cc2)ccc1OCC(=O)N1CCOCC1 [Example 10, 2-(2-Methyl-4-(2-(thiophen-3-yl)-1-(((4-(trifluoromethyl)benzyl)oxy)imino)ethyl)phenoxy)-1-morpholinoethanone] | 21% | 53%
26 | CN1CCN(C(=O)COc2ccc(C(Cc3ccccc3)=NOCc3ccc(C(F)(F)F)cc3)cc2)CC1 [Example 6, 1-(4-Methylpiperazin-1-yl)-2-(4-(2-phenyl-1-(((4-(trifluoromethyl)benzyl)oxy)imino)ethyl)phenoxy)ethanone] | 49% | 
27 | COc1ccc(CON=C(Cc2ccccc2)c2ccc(OCC(=O)N3CCOCC3)c(C)c2)cc1 [Example 36, 2-(4-(1-(((4-methoxybenzyl)oxy)imino)-2-phenylethyl)-2-methylphenoxy)-1-morpholinoethanone] | 22% | 40%
28 | Cc1ccc(CON=C(Cc2ccccc2)c2ccc(OCC(=O)N3CCOCC3)c(C)c2)cc1 [Example 26, 2-(2-Methyl-4-(1-(((4-methylbenzyl)oxy)imino)-2-phenylethyl)phenoxy)-1-morpholinoethanone] | 32% | 44%

From US20150051144A1, “COMPOUNDS FOR THE TREATMENT OF DYSLIPIDEMIA AND OTHER DISEASES” (Cadila Healthcare Limited, priority 2012, published 2015)
